Data on 24 compounds can be found in patent US20240190874A1, “SMALL MOLECULE DEGRADERS OF ANDROGEN RECEPTOR” (THE REGENTS OF THE UNIVERSITY OF MICHIGAN, priority 2021, published 2024).

Some results are limits rather than exact numbers.

What all share (type): cell-based
One experiment concerns the target T1, AR (Homo sapiens, UniProt P10275).
T1 construct: Degradation of AR; Cellular potency; host or cells: VCaP cells
T1 sequence (P10275 1-920): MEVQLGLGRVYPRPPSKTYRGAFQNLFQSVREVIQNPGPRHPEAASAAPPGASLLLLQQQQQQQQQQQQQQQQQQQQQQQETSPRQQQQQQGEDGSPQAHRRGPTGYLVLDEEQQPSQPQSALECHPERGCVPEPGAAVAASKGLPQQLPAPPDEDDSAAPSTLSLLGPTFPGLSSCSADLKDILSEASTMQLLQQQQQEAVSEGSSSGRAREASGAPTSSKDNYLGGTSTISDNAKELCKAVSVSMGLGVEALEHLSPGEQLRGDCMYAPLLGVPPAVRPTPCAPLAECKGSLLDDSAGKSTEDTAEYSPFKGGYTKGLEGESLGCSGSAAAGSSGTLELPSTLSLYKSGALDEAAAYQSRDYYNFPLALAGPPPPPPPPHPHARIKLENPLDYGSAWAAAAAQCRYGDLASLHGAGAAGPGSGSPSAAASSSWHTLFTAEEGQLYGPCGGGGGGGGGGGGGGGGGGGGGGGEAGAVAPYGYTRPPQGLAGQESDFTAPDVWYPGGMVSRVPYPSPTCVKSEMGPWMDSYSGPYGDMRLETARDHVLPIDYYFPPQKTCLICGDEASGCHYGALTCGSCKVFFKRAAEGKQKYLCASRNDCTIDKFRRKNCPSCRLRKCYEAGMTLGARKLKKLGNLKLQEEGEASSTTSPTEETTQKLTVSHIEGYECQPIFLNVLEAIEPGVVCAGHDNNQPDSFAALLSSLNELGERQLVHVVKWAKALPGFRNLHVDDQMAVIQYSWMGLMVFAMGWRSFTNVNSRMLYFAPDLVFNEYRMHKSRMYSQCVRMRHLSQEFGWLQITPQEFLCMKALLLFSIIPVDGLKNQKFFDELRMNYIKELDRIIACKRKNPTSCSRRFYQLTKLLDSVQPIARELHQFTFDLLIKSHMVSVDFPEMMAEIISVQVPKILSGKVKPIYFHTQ
Description: Degradation of AR in VCaP cells. Particulars: VCaP cells; for Dmax: VCaP. How it is done: (§1) Biological Assays. LNCaP and VCaP cells used were purchased from American Type Culture Collection (ATCC). LNCaP were grown in RPMI 1640 (Invitrogen) and VCaP cells were grown in DMEM with Glutamax (Invitrogen). All of the cells were supplemented with 10% fetal bovine serum (Invitrogen) at 37° C. in a humidified 5% CO2 incubator.

For another experiment, the system named is LNCaP cells. As to the kind of experiment: Cellular potency (IC50) in LNCaP cells. The note with it: Homo sapiens, LNCaP. How it is done:
as §1

Another experiment concerns VCaP cells. As to the kind of experiment: Cellular potency (IC50) in VCaP cells. The note with it: Homo sapiens, VCaP. How it is done: as §1

As usually defined, the DC50 is the concentration giving 50% degradation. Low readings indicate a more potent degrader, high ones a less potent degrader. The Dmax is the greatest extent of degradation seen. In general, IC50 refers to the concentration at which inhibition is half-maximal. `C[C@H]1CC2(CCN(c3ncc(C(=O)N4CCN(C5CN(c6ccc7c(c6)C(=O)N(C6CCC(=O)NC6=O)C7=O)C5)CC4)s3)CC2)CN1c1ccc(C#N)c(Cl)c1` (stereo partly shown) [compound 136] yielded a DC50 on AR of less than 1 nM. In addition, on AR, the Dmax was greater than 90%. Besides, the IC50 in the experiment with LNCaP cells and with VCaP cells was less than 10 nM in each case.
Regarding `C[C@H]1CC2(CCN(c3cnc(C(=O)N4CCN(C5CN(c6ccc7c(c6)C(=O)N(C6CCC(=O)NC6=O)C7=O)C5)CC4)s3)CC2)CN1c1ccc(C#N)c(Cl)c1` (stereo partly shown) [compound 137], on AR, the DC50 was less than 10 nM and the Dmax lay in the range of 70 to 90%. The IC50 in the experiment with LNCaP cells was less than 100 nM. Further, the IC50 in the experiment with VCaP cells was less than 100 nM.
At AR, `C[C@H]1CC2(CCN(c3ccc(C(=O)N4CCC(N5Cc6cc7c(cc6C5)C(=O)N(C5CCC(=O)NC5=O)C7=O)CC4)s3)CC2)CN1c1ccc(C#N)c(Cl)c1` (stereo partly shown) [compound 138] returned a DC50 of less than 10 nM and a Dmax of 70 to 90%. In the experiment on LNCaP cells, this compound yielded an IC50 of less than 100 nM. In the experiment with VCaP cells, this compound came in with an IC50 of less than 100 nM.
On AR, `C[C@H]1CC2(CCN(c3ncc(C(=O)N4CCC(N5Cc6cc7c(cc6C5)C(=O)N(C5CCC(=O)NC5=O)C7=O)CC4)s3)CC2)CN1c1ccc(C#N)c(Cl)c1` (stereo partly shown) [compound 139] had a DC50 of less than 10 nM and a Dmax of 70 to 90%. In the experiment with LNCaP cells, this compound showed a half-maximal inhibitory concentration (IC50) of less than 100 nM. For the same compound, the IC50 in the experiment with VCaP cells was less than 100 nM.
`C[C@H]1CC2(CCN(c3ccc(S(=O)(=O)C4CN(C(=O)CN5Cc6cc7c(cc6C5)C(=O)N(C5CCC(=O)NC5=O)C7=O)C4)cc3)CC2)CN1c1ccc(C#N)c(Cl)c1` (stereo partly shown) [compound 149] displayed a DC50 on AR of less than 1 nM. For the same compound, the IC50 in the experiment on LNCaP cells is less than 10 nM; with VCaP cells, less than 100 nM.
Compound `C[C@H]1CC2(CCN(c3ccc(S(=O)(=O)C4CCN(C(=O)CN5Cc6cc7c(cc6C5)C(=O)N(C5CCC(=O)NC5=O)C7=O)CC4)cc3)CC2)CN1c1ccc(C#N)c(Cl)c1` (stereo partly shown) [compound 152] came in with a DC50 at AR of less than 1 nM. The IC50 in the experiment on LNCaP cells and in the experiment on VCaP cells was less than 100 nM each time.
The compound `C[C@H]1CC2(CCN(c3ccc(CN4CCN(C5CCN(c6ccc7c(c6)C(=O)N(C6CCC(=O)NC6=O)C7=O)CC5)CC4)cn3)CC2)CN1c1ccc(C#N)c(Cl)c1` (stereo partly shown) [compound 154] had a DC50 at AR of less than 1 nM. Moreover, the IC50 in the experiment on LNCaP cells is less than 10 nM; in the experiment on VCaP cells it was less than 100 nM.
On AR, `C[C@H]1CC2(CCN(c3ccc(C(=O)N4CCC(C(=O)CN5Cc6cc7c(cc6C5)C(=O)N(C5CCC(=O)NC5=O)C7=O)CC4)nc3)CC2)CN1c1ccc(C#N)c(Cl)c1` (stereo partly shown) [compound 160] gave a DC50 of less than 1 nM. Moreover, the IC50 in the experiment on LNCaP cells was less than 10 nM; in the experiment on VCaP cells, less than 1000 nM.
For `C[C@H]1CC2(CCN(c3ccc(S(=O)(=O)C4CCN(C5CCN(c6ccc7c(c6)C(=O)N(C6CCC(=O)NC6=O)C7=O)CC5)CC4)cc3)CC2)CN1c1ccc(C#N)c(Cl)c1` (stereo partly shown) [compound 161], the DC50 at AR was less than 1 nM. Further, the IC50 in the experiment on LNCaP cells and with VCaP cells was less than 10 nM in each case.
The compound `C[C@H]1CC2(CCN(c3ccc(S(=O)(=O)C4CCN(CC5CCN(c6ccc7c(c6)C(=O)N(C6CCC(=O)NC6=O)C7=O)CC5)CC4)cc3)CC2)CN1c1ccc(C#N)c(Cl)c1` (stereo partly shown) [compound 162] came in with a DC50 on AR of less than 1 nM. Further, the 50% inhibitory concentration (IC50) in the experiment on LNCaP cells and in the experiment on VCaP cells was less than 10 nM throughout.
`C[C@H]1CC2(CCN(c3ccc(S(=O)(=O)C4CCN(C5CN(c6ccc7c(c6)C(=O)N(C6CCC(=O)NC6=O)C7=O)C5)CC4)cc3)CC2)CN1c1ccc(C#N)c(Cl)c1` (stereo partly shown) [compound 163] showed a half-maximal degradation concentration (DC50) at AR of less than 1 nM. Further, the IC50 with LNCaP cells and in the experiment with VCaP cells was less than 10 nM throughout.
In the case of `C[C@H]1CC2(CCN(c3ccc(S(=O)(=O)C4CCN(CC5CN(c6ccc7c(c6)C(=O)N(C6CCC(=O)NC6=O)C7=O)C5)CC4)cc3)CC2)CN1c1ccc(C#N)c(Cl)c1` (stereo partly shown) [compound 164], on AR, the DC50 is less than 1 nM. Besides, the results for the half-maximal inhibitory concentration (IC50) in the experiment with LNCaP cells and in the experiment with VCaP cells were less than 100 nM and less than 10 nM, respectively.
Taken in the same sequence, the figures for `C[C@H]1CC2(CCN(c3ccc(CN4CCN(C5CCN(c6cc7c(cc6F)C(=O)N(C6CCC(=O)NC6=O)C7=O)CC5)CC4)cn3)CC2)CN1c1ccc(C#N)c(Cl)c1` (stereo partly shown) [compound 165] were less than 10 nM, less than 10 nM and less than 10 nM.
`C[C@H]1CC2(CCN(c3ccc(CN4CCC(N5CCN(c6ccc7c(c6)C(=O)N(C6CCC(=O)NC6=O)C7=O)CC5)CC4)cn3)CC2)CN1c1ccc(C#N)c(Cl)c1` (stereo partly shown) [compound 166] had a DC50 at AR of less than 10 nM. Further, the IC50 with LNCaP cells was less than 100 nM; in the experiment on VCaP cells, less than 10 nM.
Turning to `C[C@H]1CC2(CCN(c3ccc(CN4CCC(N5CCN(c6cc7c(cc6F)C(=O)N(C6CCC(=O)NC6=O)C7=O)CC5)CC4)cn3)CC2)CN1c1ccc(C#N)c(Cl)c1` (stereo partly shown) [compound 168], the DC50 on AR was less than 10 nM. The IC50 in the experiment with LNCaP cells and with VCaP cells was less than 10 nM each time.
`C[C@H]1CC2(CCN(c3cnc(CN4CCN(C5CCN(c6ccc7c(c6)C(=O)N(C6CCC(=O)NC6=O)C7=O)CC5)CC4)nc3)CC2)CN1c1ccc(C#N)c(Cl)c1` (stereo partly shown) [compound 171] had a DC50 on AR of less than 10 nM. The IC50 with LNCaP cells was less than 10 nM; in the experiment with VCaP cells, less than 100 nM.
At AR, `C[C@H]1CC2(CCN(c3ccc(CN4CCN(C5CN(c6cc7c(cc6F)C(=O)N(C6CCC(=O)NC6=O)C7=O)C5)CC4)nc3)CC2)CN1c1ccc(C#N)c(Cl)c1` (stereo partly shown) [compound 172] showed a DC50 of less than 1 nM. Moreover, the IC50 with LNCaP cells and in the experiment with VCaP cells was less than 10 nM throughout.
On to `C[C@H]1CC2(CCN(c3ccc(CN4CCN(C5CN(c6ccc7c(c6)C(=O)N(C6CCC(=O)NC6=O)C7=O)C5)CC4)nn3)CC2)CN1c1ccc(C#N)c(Cl)c1` (stereo partly shown) [compound 173], for which, on AR, the DC50 was less than 1 nM. For the same compound, the IC50 was less than 10 nM in the experiment on LNCaP cells and less than 100 nM in the experiment on VCaP cells.
Taken in the same sequence, the figures for `C[C@H]1CC2(CCN(c3ccc(CN4CCN(C5CN(c6cc7c(cc6F)C(=O)N(C6CCC(=O)NC6=O)C7=O)C5)CC4)nn3)CC2)CN1c1ccc(C#N)c(Cl)c1` (stereo partly shown) [compound 174] were less than 1 nM, less than 10 nM and less than 10 nM.
Taken in the same sequence, the figures for `C[C@H]1CC2(CCN(c3cnc(CN4CCN(C5CN(c6cc7c(cc6F)C(=O)N(C6CCC(=O)NC6=O)C7=O)C5)CC4)nc3)CC2)CN1c1ccc(C#N)c(Cl)c1` (stereo partly shown) [compound 175] were less than 1 nM, less than 10 nM and less than 10 nM.
Taken in the same sequence, the figures for `C[C@H]1CC2(CCN(c3ccc(CN4CCC(C5CN(c6ccc7c(c6)C(=O)N(C6CCC(=O)NC6=O)C7=O)C5)CC4)cn3)CC2)CN1c1ccc(C#N)c(Cl)c1` (stereo partly shown) [compound 176] were less than 10 nM, less than 10 nM and less than 10 nM.
`C[C@H]1CC2(CCN(c3ccc(CN4CCC(C5CN(c6ccc7c(c6)C(=O)N(C6CCC(=O)NC6=O)C7=O)C5)CC4)nc3)CC2)CN1c1ccc(C#N)c(Cl)c1` (stereo partly shown) [compound 177] gave a DC50 at AR of less than 1 nM. Besides, the IC50 with LNCaP cells and in the experiment with VCaP cells was less than 10 nM throughout.
For the compound `C[C@H]1CC2(CCN(c3ccc(CN4CC(C5CCN(c6ccc7c(c6)C(=O)N(C6CCC(=O)NC6=O)C7=O)CC5)C4)cn3)CC2)CN1c1ccc(C#N)c(Cl)c1` (stereo partly shown) [compound 178], the DC50 at AR is less than 10 nM. The IC50 in the experiment on LNCaP cells and in the experiment with VCaP cells was less than 100 nM in each case.
Compound `C[C@H]1CC2(CCN(c3ccc(CN4CC(C5CCN(c6ccc7c(c6)C(=O)N(C6CCC(=O)NC6=O)C7=O)CC5)C4)nc3)CC2)CN1c1ccc(C#N)c(Cl)c1` (stereo partly shown) [compound 179] registered a DC50 on AR of less than 10 nM. The values for the IC50 in the experiment with LNCaP cells and with VCaP cells were less than 10 nM and less than 100 nM, respectively.
